Data reported in patent US8865656B2, “Beta-hairpin peptidomimetics having CXCR4 antagonizing activity” (Polyphor AG, priority 2009, dated 2014).
Like-named read-outs stand apart in the source and are kept apart here. Starred links: 1 amine or outer side, 2 acyl side, 3 side chain; linkers in the order of their positions; H or OH if unused. Positions of bridges follow the written chain, without caps; N, C: chain ends. Non-standard residues stand in square brackets, D forms with d. Residues, ends and D or L forms follow the SMILES beside them. X2 = O=C(CC[C@H](Cc1ccc(O)cc1)N[*:1])[*:2]; Oic = O=C(O)[C@@H]1C[C@@H]2CCCC[C@@H]2N1; X1 = O=C(C(O)CCN[*:1])[*:2]; β3hS = N[C@@H](CO)CC(=O)O; Dab = NCC[C@H](N)C(=O)O

Experiments:
in vitro [1] = assay type: cell-based
Experimental: (§1) The cytotoxicity of the depsipeptides to HELA cells (Acc57) and COS-7 cells (CRL-1651) was determined using the MTT reduction assay (T. Mossman, J. Immunol. Meth. 1983, 65, 55-63; M. V. Berridge, A. S. Tan, Arch. Biochem. Biophys. 1993, 303, 474-482). Briefly, the method was as follows: 7000 HELA cells/well and 4500 COS-7 cells/well were seeded and grown in 96-well microtiter plates for 24 h at 37° C. at 5% CO2. Thereafter, time zero (Tz) was determined by MTT reduction (see below). The supernatant of the remaining wells was discarded, and fresh medium and compounds in serial dilutions (12.5, 25 and 50 μM, triplicates) were pipetted into the wells. After incubation of the cells for 48 h at 37° C. at 5% CO2 the supernatant was discarded again and 100 μL MTT reagent (0.5 mg/mL in RPMI1640 and DMEM, respectively)/well was added. Following incubation at 37° C. for 2 h the media were aspirated and the cells were spiked (100 μL isopropanol/well). The absorbance of the solubilized formazan was measured at 595 nm (OD595peptide). For each concentration averages were calculated from triplicates. The percentage of growth was calculated as follows: (OD595peptide-OD595Tz-OD595Empty well)/(OD595Tz-OD595Empty well)×100%. The GI50 (Growth Inhibition) concentrations were calculated for each depsipeptide by using a trend line function for the concentrations (50, 25, 12.5 and 0 μM), the corresponding percentages and the value 50, (=TREND (C50:C0, %50:%0, 50).

in vitro [2] = assay type: cell-based; remark: listed apart in the source
Experimental: as §1

[3] = Plasma stability in human plasma
Experimental: (§2) The stability of the peptides in human and mouse plasma was determined by applying the following method: 315 μL/deep well of freshly thawed human plasma (Basler Blutspende-dienst) and mouse plasma (Harlan Sera-Lab, UK), respectively, were spiked with 35 μL/well of compound in PBS (100 μM, triplicate) and incubated at 37° C. […] Following shaking for 2 min the occurred suspensions were filtrated by vacuum and finally, 100 μL of each filtrate were transferred to a propylene microtiter plate, and analyzed by LC/MS as follows: Column: Waters, XBridge C18, mobile phases: (A) water+0.1% formic acid and (B) acetonitrile/water, 95/5 (v/v)+0.1% formic acid, gradient: 5%-100% (B) in 2 minutes, electrospray ionization, MRM detection (triple quadrupole). The peak areas were determined and triplicate values are averaged. The stability is expressed in percent of the initial value at t=0. (tx/to×100). By using the TREND function of EXCEL (Microsoft Office 2003) T1/2 were determined.

human CXCR4 = target: T1, human CXCR4 (Homo sapiens, UniProt P61073); assay: Ca2+-assay: CXCR4-antagonizing activity (SDF-1 induced calcium mobilization); assay type: cell-based; conditions: mouse pre-B cell line 300-19 stably transfected with human CXCR4, read-out: IC50% [nM] ± SD, CXCR4 receptor
T1 construct: expressed in transfected cells; host or cells: mouse pre-B cell line 300-19
T1 sequence (P61073 whole entry): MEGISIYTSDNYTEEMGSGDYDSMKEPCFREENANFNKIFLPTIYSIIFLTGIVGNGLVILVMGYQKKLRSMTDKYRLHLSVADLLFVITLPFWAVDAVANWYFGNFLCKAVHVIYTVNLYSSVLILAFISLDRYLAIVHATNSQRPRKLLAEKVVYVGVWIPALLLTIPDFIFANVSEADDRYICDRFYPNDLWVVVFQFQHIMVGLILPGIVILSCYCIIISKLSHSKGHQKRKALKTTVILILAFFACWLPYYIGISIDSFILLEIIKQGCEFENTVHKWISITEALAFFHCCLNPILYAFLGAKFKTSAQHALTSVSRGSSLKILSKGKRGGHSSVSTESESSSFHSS
Text: 2.3. Ca^2+-Assay: CXCR4-Antagonizing Activity of the Peptides
Increases in intracellular calcium were monitored using a Flexstation 384 (Molecular Devices, Sunnyvale, Calif.) to assay the depsipeptides for CXCR4 antagonism in a mouse pre-B cell line 300-19 stably transfected with human CXCR4 (E. Oberlin, A. Amara, F. Bachelerie, C. Bessia, J.-L. Virelizier, F. Arenzana-Seisdedos, O. Schwartz, J.-M. Heard, I. Clark-Lewis, D. F. Legler, M. Loetscher, M. Baggiolini, B. Moser, Nature 1996, 382, 833-835; M. Loetscher, T. Geiser, T. O'Reilly, R. Zwalen, M. Baggiolini, B. Moser, J. Biol. Chem. 1994, 269, 232-237; M. D'Apuuo, A. Rolink, M. Loetscher, J. A. Hoxie, I. Clark-Lewis, F. Melchors, M. Baggiolini, B. Moser, Eur. J. Immunol. 1997, 27, 1788-1793). The cells were batch loaded with the Calcium 4 Assay kit (Molecular Devices) in assay buffer (Hanks Balanced salt solution [HBSS], 20 mM HEPES, pH 7.4, 0.1% BSA) for 1 h at room temperature and labeled cells were dispensed into black 96 well assays plates (Costar No. 3603). Calcium mobilization induced by stromal-derived factor-1 (SDF-1) was measured in the Flexstation 384 (excitation: 485 nm; emission: 525 nm) for 90 seconds. Antagonist activity of peptides was determined by spiking the cells with compounds prior to SDF-1 addition. Dose response curves (compound concentration versus % maximum response for SDF-1) were determined for each antagonist and IC50 values were calculated by fitting the data to a four parameter logistic equation using SoftmaxPro 4.8 (Molecular Devices).

[4] = tested on: human red blood cells (hRBC); conditions: red cells of human, 1 h
Experimental: The peptides were tested for their hemolytic activity against human red blood cells (hRBC). Fresh hRBC were washed three times with phosphate buffered saline (PBS) and centrifuged for 10 min at 2000×g. Compounds (100 μM) were incubated with 20% hRBC (v/v) for 1 h at 37° C. The final erythrocyte concentration was approximately 0.9×10^9 cells/mL. A value of 0% and 100% cell lyses, respectively, was determined by incubation of hRBC in the presence of PBS alone and 0.1% Triton X-100 in H2O, respectively. The samples were centrifuged, the supernatants were 20-fold diluted in PBS buffer and the optical densities (OD) were measured at 540 nm.
Percent hemolysis was calculated as follows: (OD540peptide/OD540H2O)×100%.

[5] = Plasma stability in mouse plasma
Experimental: as §2

[6] = human plasma, 37° C., sampling up to 240 min
[7] = mouse plasma, 37° C., sampling up to 240 min

SMILES | GI50 (in vitro [1]; African green monkey) [µM] | GI50 (in vitro [2]; human) [µM] | Plasmastability human pl. T1/2 [3, 6] [h] | IC50 (human CXCR4) [nM] | Hemolysis at 100 μM [4] [%] | Plasmastability mouse pl. T1/2 [5, 7] [h] | Plasmastability human pl. T1/2 ([3]; human, plasma, 10 μM) [h] | Plasmastability mouse pl. T1/2 ([5]; mouse, plasma, 10 μM) [h] | GI50 (in vitro [1]) [µM] | GI50 (in vitro [2]) [µM] | Plasmastability human pl. T1/2 ([3]; human, plasma) [h] | Plasmastability mouse pl. T1/2 ([5]; mouse, plasma) [h]
C[C@@H]1NC(=O)[C@H](CO)NC(=O)[C@@H]2CSSC[C@H](NC(=O)[C@H](Cc3ccc(O)cc3)NC(=O)[C@H](CCCNC(=N)N)NC(=O)[C@H](CCN)NC(=O)[C@@H](Cc3ccc(O)cc3)NC1=O)C(=O)N[C@@H](Cc1ccc(O)cc1)C(=O)N[C@@H](CCC(N)=O)C(=O)N[C@@H](CCCCN)C(=O)N(C)[C@H](C)C(=O)N1CCC[C@H]1C(=O)N[C@@H](Cc1ccc(O)cc1)C(=O)N[C@@H](Cc1c[nH]cn1)C(=O)N[C@@H](C)C(=O)N2 [compound 12] | > 50 | > 50 | 4 | 0.1 ± 0.02 | 0.9 | 4 | – | – | – | – | – | –
C[C@@H]1NC(=O)[C@H](Cc2c[nH]cn2)NC(=O)[C@H](Cc2ccc(O)cc2)NC(=O)[C@@H]2C[C@@H]3CCCC[C@@H]3N2C(=O)[C@H]2CCCN2C(=O)[C@H](CCCCN)NC(=O)[C@H](CCC(N)=O)NC(=O)[C@H](Cc2ccc(O)cc2)NC(=O)[C@@H]2CSSC[C@H](NC1=O)C(=O)N[C@@H](CO)C(=O)N[C@@H](C)C(=O)N1CCC[C@@H]1C(=O)N[C@@H](CCN)C(=O)N[C@@H](CCCNC(=N)N)C(=O)N[C@@H](Cc1ccc(O)cc1)C(=O)N2 [compound 16] (cyclo(ACSA[dP][Dab]RYCYQK[dP][Oic]YH); disulfide 2-9) | > 50 | > 50 | 4 | 1.46 ± 1.6 | 0.5 | 4 | – | – | – | – | – | –
C[C@@H]1NC(=O)[C@H](Cc2c[nH]cn2)NC(=O)CC[C@H](Cc2ccc(O)cc2)NC(=O)[C@@H]2CCCN2C(=O)[C@H]2CCCN2C(=O)[C@H](CCCCN)NC(=O)[C@H](CCC(N)=O)NC(=O)[C@H](Cc2ccc(O)cc2)NC(=O)[C@@H]2CSSC[C@H](NC1=O)C(=O)N[C@@H](CO)C(=O)N[C@@H](C)C(=O)N1CCC[C@@H]1C(=O)N[C@@H](CCN)C(=O)N[C@@H](CCCNC(=N)N)C(=O)N[C@@H](Cc1ccc(O)cc1)C(=O)N2 [compound 18] (cyclo([X2]HACSA[dP][Dab]RYCYQK[dP]P); disulfide 4-11) | > 50 | > 50 | – | 0.39 ± 0.5 | 1.4 | – | 4 | 4 | – | – | – | –
C[C@@H]1NC(=O)[C@H](Cc2c[nH]cn2)NC(=O)[C@H](Cc2ccc(O)cc2)NC(=O)[C@@H]2CCCN2C(=O)[C@H]2CCCN2C(=O)[C@H](CCCCN)NC(=O)[C@H](CCC(N)=O)NC(=O)[C@H](Cc2ccc(O)cc2)NC(=O)[C@@H]2CSSC[C@H](NC1=O)C(=O)NCCC(O)C(=O)N[C@@H](C)C(=O)N1CCC[C@@H]1C(=O)N[C@@H](CCN)C(=O)N[C@@H](CCCNC(=N)N)C(=O)N[C@@H](Cc1ccc(O)cc1)C(=O)N2 (stereo partly drawn) [compound 19] (cyclo(YHAC[X1]A[dP][Dab]RYCYQK[dP]P); disulfide 4-11) | – | – | – | 1.1 ± 0.6 | 1.8 | – | – | – | > 50 | > 50 | 4 | 4
C[C@@H]1NC(=O)[C@H](Cc2c[nH]cn2)NC(=O)[C@H](Cc2ccc(O)cc2)NC(=O)[C@@H]2CCCN2C(=O)[C@H]2CCCN2C(=O)[C@H](CCCCN)NC(=O)[C@H](CCC(N)=O)NC(=O)[C@H](Cc2ccc(O)cc2)NC(=O)[C@@H]2CSSC[C@H](NC1=O)C(=O)N[C@@H](CO)CC(=O)N[C@@H](C)C(=O)N1CCC[C@@H]1C(=O)N[C@@H](CCN)C(=O)N[C@@H](CCCNC(=N)N)C(=O)N[C@@H](Cc1ccc(O)cc1)C(=O)N2 [compound 20] (cyclo(YHAC[β3hS]A[dP][Dab]RYCYQK[dP]P); disulfide 4-11) | > 50 | > 50 | – | 2.66 ± 2.2 | 0.6 | – | 4 | 4 | – | – | – | –
